Assay results from PubChem BioAssay AID179 (DTP/NCI, 2004).
The source made the active and inactive calls.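 Rule for the calls: active = compounds giving half or more protection of infected cells from virus-caused growth loss, again on retest; inactive = the rest.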 Where a SMILES comes first, the peptide text is derived from it. The star is where a group is joined. Cbz = O=C(OCc1ccccc1)*; OBn = c1ccc(CO*)cc1

Test system: CEM cells HIV-1 protection, formazan growth assay
Assay: NCI AIDS Antiviral Assay
Conditions: for IC50: measured here: growth of uninfected CEM cells
In short: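 Soluble formazan readout of cell growth; CEM cells ± HIV-1; 5 drug concs. ≥50% protection → retest; ≥50% again = moderately active; reproducible 100% = confirmed active.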

| SMILES | EC50 [µM] | IC50 [µM] | outcome |
| --- | --- | --- | --- |
| c1ccc(C2=NN(c3ccccc3)C3(S2)SC(c2ccccc2)(c2ccccc2)c2ccccc23)cc1 (stereo not drawn) | > 50.1 | > 50.1 | – |
| COc1ccc(Cl)c2c1[nH]c1nc3nc4cc(Cl)ccc4n3nc12 | > 100 | > 100 | – |
| O=C1CCC2(c3ccc(F)cc3)Nc3ncncc3N12 (stereo not drawn) | > 347 | > 347 | – |
| O=C(NCCc1ccccc1)c1c(O)c2ccccc2[nH]c1=O | > 200 | > 200 | – |
| CN(C)CCC(/C=C/c1ccccc1)=N\Nc1ccc(Cl)c(Cl)c1 | – | – | inactive |
| Cn1nc2ccccc2cc1=O | > 1550 | 661 | – |
| Nc1ccc(CCN2CCN(c3cccc(C(F)(F)F)c3)CC2)cc1I | – | – | inactive |
| CCOC(=O)C1=NN(c2ccc(C)cc2)C2=CC(C)=NN(C)C(=S)N21 | > 200 | > 200 | – |
| CCCC1C[C@H]2CCCCN2[C@H]2CCCN12 (stereo partly drawn) | > 1120 | 550 | – |
| COC(=O)C(Cc1ccc(O)cc1)NC(=O)C(CC(=O)OCc1ccccc1)NC(=O)OCc1ccccc1 (stereo not drawn) (Cbz-Asp(OBn)-Tyr-OMe; configuration not given here) | > 200 | 30.9 | – |
| O=c1cn[nH]c2c(Br)cc(Br)cc12 | > 70.8 | > 70.8 | – |
| CC1(C)CNC[C@@]2(C)OCCOCCOCCO[C@](C)(CNCC(C)(C)NC2=O)C(=O)N1 | > 200 | > 200 | – |
| Cc1cccc(Nc2nc3ccccc3nc2NS(=O)(=O)c2ccc(N)cc2)c1 | > 200 | 112 | – |
| O=C(NC12CC3CC(CC(C3)C1)C2)C(=O)c1c[nH]c2ccccc12 | – | – | inactive |
| O=C1c2ccccc2C(=O)N1/N=C\c1ccc(Br)cc1 | > 21.9 | > 21.9 | – |
| COc1cc2c3c(c1OC)/C(=N/OS(=O)(=O)c1ccc(C)cc1)CC3N(S(=O)(=O)c1ccc(C)cc1)CC2 (stereo not drawn) | – | – | inactive |
| COc1ccc(/C=C/C(=O)c2cc(C(C)(C)C)c(O)c(C(C)(C)C)c2)cc1 | > 10.2 | 5.01 | – |
| O=C1NC(=S)N/C1=C\c1cc2c(=O)c3ccccc3sc2s1 | 75.9 | 81.3 | – |
| CCOC(=O)/C(C#N)=C/c1ccccc1Cl | – | – | inactive |
| C[C@H](CCCN1CCOCC1)[C@H]1CC[C@H]2[C@@H]3CC[C@@H]4C[C@H](O)CC[C@]4(C)[C@H]3CC[C@]12C | > 50.1 | 9.12 | – |
| CC(NC(=O)CNP(=O)(c1ccccc1)c1ccccc1)C(=O)NC(Cc1ccccc1)C(=O)OCc1ccccc1 (stereo not drawn) | > 200 | 20.4 | – |
| C#C[C@]1(O)CCCC2=CC(=O)CC[C@@]21C | – | – | inactive |

| SMILES | EC50 [µM] | IC50 [µM] | outcome |
| --- | --- | --- | --- |
| C=CCC1(c2ccccc2)Oc2cccnc2-n2cccc2C1=O (stereo not drawn) | > 200 | 8.91 | – |
| Cc1ccc([N+](=O)[O-])cc1NC(=O)C(=O)C1CCC2=C(Sc3ccccc3N2)C1=O (stereo not drawn) | > 117 | > 117 | – |
| CC1=CC2CC(C)=C(CC[C@]3(C)CC[C@H]([C@@H](C)C(=O)O)OO3)C(C)(C)C2CC1 (stereo partly drawn) | – | – | inactive |
| Cc1nn(C(=O)c2ccncc2)c2c1C(c1ccc([N+](=O)[O-])cc1)SC(N)=N2 (stereo not drawn) | > 200 | 126 | – |
| O=C(c1ccccc1)C1C(=O)c2ccccc2C1=O | > 105 | > 105 | – |
| O=C1OC(c2cccc3ccc(Br)cc23)c2ccccc21 (stereo not drawn) | 27.5 | 52.5 | – |
| O=C1OCCCCCCOC(=O)c2ccccc2SSc2ccccc21 | > 200 | > 200 | – |
| NC1=CNC(=O)C1 | > 138 | > 138 | – |
| O=C(O)Cc1sc(=O)[nH]c1O | > 200 | > 200 | – |
| S=c1[nH]nc(C23CC4CC(CC(C4)C2)C3)n1-c1ccc(Cl)cc1 | > 200 | 23.4 | – |
| CC(=O)OCCCCN1C(=O)CSc2ccccc21 | > 200 | > 200 | – |
| O=C1c2c(Br)sc(Br)c2[C@@H](NC(=O)C(F)(F)F)C1Br (stereo partly drawn) | > 200 | 3.8 | – |
| O=C1NC(N2CCOCC2)=N/C1=C\c1cccs1 | > 200 | > 200 | – |
| CCN=C(N)SCCS(=O)(=O)O | > 200 | > 200 | – |
| CC(C)(C)C(=O)/C=C/c1ccc(Cl)cc1 | > 32.4 | > 32.4 | – |
| CC(=O)OC1CC2C(C)(C)CCCC2(C)C2C(=O)C(O)=C(C(C)C)C(=O)C12 (stereo not drawn) | > 200 | 2.82 | – |
| NC12c3c4cccc3Oc3cccc(c31)Oc1cccc(c12)O4 | > 50.1 | 28.8 | – |
| CN(C)CCn1nc(N)c2nc3cc(C(F)(F)F)ccc3nc21 | > 100 | 63.1 | – |
| CC1=NN(c2ccccc2)C(=O)/C1=C1/C(=O)N(c2ccccc2)N=C1C | > 200 | > 200 | – |
| Nc1nc(Cl)cc(NCC2(O)CCCC2)n1 | > 200 | 166 | – |
| Cc1cccc2c1C/C(=C1\CCc3c(C)cccc31)C2=O | – | – | inactive |
| CCOC(=O)CCC(NC(=O)C(CCC(=O)OCC)NC(=O)C(Cc1ccc([N+](=O)[O-])cc1)NC(C)=O)C(=O)NNC(=O)OC(C)(C)C (stereo not drawn) | > 200 | > 200 | – |

| SMILES | EC50 [µM] | IC50 [µM] | outcome |
| --- | --- | --- | --- |
| NC(=O)N/N=C1\CCc2ccccc2C1 | > 93.3 | > 93.3 | – |
| O=c1[nH]c(=O)n(C2CC(O)C(CO)O2)cc1/C=C/Br (stereo not drawn) | > 759 | 741 | – |
| O=C1OC(C(O)CO)C(O)=C1O (stereo not drawn) | – | – | inactive |
| CN1C(=O)c2ccccc2OC12C=Cc1ccc(O)cc1O2 (stereo not drawn) | > 132 | 45.7 | – |
| Cc1[nH]c2[nH]c(=S)nc(NC(N)=S)c2c1Cc1ccccc1 | > 100 | 41.7 | – |
| CCCCCCCCCCCCCCCCOC(=O)c1cc(O)cc(C(=O)OCCCCCCCCCCCCCCCC)c1 | – | – | inactive |
| COC(=O)C(=O)C(/C=N/C(=S)NCCc1ccc(OC)c(OC)c1)=C(/O)c1ccc([N+](=O)[O-])cc1 | > 100 | > 100 | – |
| O=C(CC1(O)C(=O)Nc2c(Cl)cc(Cl)cc21)c1cccc([N+](=O)[O-])c1 (stereo not drawn) | > 19.1 | > 19.1 | – |
| Oc1ccccc1SSc1ccccc1O | > 200 | 63.1 | – |
| O=C1OC(C(=O)O)c2ccc3c(c21)OCO3 (stereo not drawn) | > 398 | > 398 | – |
| CCN(CC)CCn1c2ccccc2c(=O)c2c(O)ccc(O)c21 | – | – | inactive |
| Clc1ccc(C2=NN(c3ccccc3)C3c4cc(Br)ccc4OCC23)cc1 (stereo not drawn) | > 11.7 | > 11.7 | – |
| CCN(CC)c1cc2oc(=O)cc(C)c2cc1NC(=O)c1cc(N)cc(N)c1 | > 100 | 19.5 | – |
| Cc1ccnc(NS(=O)(=O)c2ccc(NC(=O)c3ccccc3SC(=O)CCCC[n+]3ccccc3)cc2)n1 | 15.1 | 102 | – |
| O=C(CCCn1ccnc1[N+](=O)[O-])NCCn1cncc1[N+](=O)[O-] | > 200 | > 200 | – |
| CCOC(=O)/C(C#N)=C/c1ccc2c(c1)CC1(C2)Cc2cc(CC)c(C(C)O)cc2C1 (stereo not drawn) | > 200 | 3.63 | – |
| COc1cc2c3cc1Oc1c(OC)c(OC)cc4c1C(Cc1ccc(cc1)Oc1cc(ccc1O)CC3N(C)CC2)N(C)CC4 (stereo not drawn) | > 22.4 | > 22.4 | inactive |
| CCSCCCCCCCCCCCC(=O)OCC1OC(n2cc(C)c(=O)[nH]c2=O)CC1F (stereo not drawn) | 0.0158 | 2 | – |
| COc1ccc2c(c1)[n+](=O)c(C(=O)C/C(=N\NC(=O)C[N+](C)(C)C)C(=O)Nc1cc(Cl)ccc1Cl)c(C)n2O | > 1.23 | > 1.23 | – |
| CN1c2ccc(Cl)cc2C2(C(=O)NN)C(C(=O)NN)N(C3CCCCC3)C(=O)C12N (stereo not drawn) | > 87.1 | > 87.1 | – |
